# Reference: patent US9856245B2, “GPR40 agonists for the treatment of type II diabetes” (Janssen Pharmaceutica NV, priority 2015, dated 2018)
# “And” between values parts separate entries of the source, which are not always exact repeats. Identical values can stand only once.
# Biological target: T1, human GPR40 (Homo sapiens, UniProt O14842)
# T1 construct: expressed in transfected cells
# Assay: GPR40 calcium flux assay (hGPR40 Ca2+ Assay)
# Format: cell-based
# Conditions: transfected HEK293 cells stably expressing human GPR40; Fluo 8 calcium dye; multiple values = repeated testing; read-out: hGPR40 Ca^2+ Assay EC50
# Procedure: Compounds were tested in a calcium flux assay using transfected HEK293 cells stably expressing either human GPR40 or rat GPR40. Human GPR40 expressing cells were cultured in DMEM-High Glucose media supplemented with 10% fetal bovine serum, 1× L-Glutamine, 1× Penicillin/Streptomycin and 500 μg/mL G418. Rat GPR40 expressing cells were cultured in DMEM-High Glucose media supplemented with 10% fetal bovine serum and 1 μg/mL puromycin. Cells were plated into poly-D-lysine coated 384-well plates and cultured overnight in a 37° C. humidified tissue culture incubator under 5% CO2/[…] atmosphere. On the day of the experiment, the culture media was replaced with assay buffer (HBSS, 20 mM HEPES, 0.1% BSA) and the cells incubated at 37° C. for 1 h. Calcium-sensitive fluorescent dye (Fluo 8 No-Wash Calcium Dye, ABD Bioquest) was then added and the cells incubated for another 30 min at 37° C. followed by 15 min at room temperature while protected from the light. The cell plate and a plate of diluted compounds of Formula (III) were loaded into a fluorescent plate reader that added compounds onto the cells while measuring the fluorescence intensity of each well. The plate reader recorded fluorescence intensity at 1 second intervals for 8 min and provided the data for analysis in an Excel format. EC50 values were calculated using Prism (GraphPad) software.
# T1 sequence (O14842 whole entry): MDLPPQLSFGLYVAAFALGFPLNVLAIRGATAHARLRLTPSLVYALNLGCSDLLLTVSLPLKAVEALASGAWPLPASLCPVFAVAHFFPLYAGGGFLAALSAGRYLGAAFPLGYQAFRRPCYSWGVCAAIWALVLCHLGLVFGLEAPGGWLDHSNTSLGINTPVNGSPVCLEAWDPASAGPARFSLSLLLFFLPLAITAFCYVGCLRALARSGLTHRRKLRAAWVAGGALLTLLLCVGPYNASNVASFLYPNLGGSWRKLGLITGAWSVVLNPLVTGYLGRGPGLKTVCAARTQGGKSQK
row,EC50,SMILES
1,121 nM and 60 nM,"COc1ccc(F)c(-n2ncc(COc3cccc([C@@H](CC(=O)O)C4CC4)c3)c2-c2ccc(C)s2)c1 [Cpd 94, (3S)-3-cyclopropyl-3-[3-[[1-(2-fluoro-5-methoxy-phenyl)-5-(5-methyl-2-thienyl)pyrazol-4-yl]methoxy]phenyl]propanoic acid]"
2,85 nM and 68 nM,"COc1ccc(F)c(-n2cnc(COc3cccc([C@@H](CC(=O)O)C4CC4)c3)c2C2=CCCC2(C)C)c1 [Cpd 87, (3S)-3-cyclopropyl-3-[3-[[5-(5,5-dimethylcyclopenten-1-yl)-1-(2-fluoro-5-methoxy-phenyl)imidazol-4-yl]methoxy]phenyl]propanoic acid]"
3,7 nM and 6 nM,"COc1ccc(F)c(-n2nnc(COc3cccc([C@@H](CC(=O)O)C4CC4)c3)c2CC(C)C)c1 [Cpd 83, (3S)-3-cyclopropyl-3-[3-[[1-(2-fluoro-5-methoxy-phenyl)-5-isobutyl-triazol-4-yl]methoxy]phenyl]propanoic acid]"
4,24 nM,"COc1ccc(F)c(-n2ncc(COc3cc(C(CC(=O)O)C4CC4)c(Cl)cn3)c2C2=CCCC2(C)C)c1 (centres unmarked) [Cpd 71, 3-[5-chloro-2-[[5-(5,5-dimethylcyclopenten-1-yl)-1-(2-fluoro-5-methoxy-phenyl)pyrazol-4-yl]methoxy]-4-pyridyl]-3-cyclopropyl-propanoic acid]"
5,4 nM and 2 nM,"COc1ccc(F)c(-n2nnc(COc3cccc([C@@H](CC(=O)O)C4CC4)c3)c2C2=CCCC2(C)C)c1 [Cpd 86, (3S)-3-cyclopropyl-3-[3-[[5-(5,5-dimethylcyclopenten-1-yl)-1-(2-fluoro-5-methoxy-phenyl)triazol-4-yl]methoxy]phenyl]propanoic acid]"
6,25 nM and 23 nM,"COc1ccc(F)c(-n2ncc(COc3cccc([C@@H](CC(=O)O)C4CC4)c3)c2-c2cc(C)cc(C)c2)c1 [Cpd 96, (3S)-3-cyclopropyl-3-[3-[[5-(3,5-dimethylphenyl)-1-(2-fluoro-5-methoxy-phenyl)pyrazol-4-yl]methoxy]phenyl]propanoic acid]"
7,1 nM,"COc1ccc(F)c(-n2ncc(COc3cc(C(CC(=O)O)C4CC4)ccn3)c2C2=CCCC2(C)C)c1 (centres unmarked) [Cpd 65, 3-cyclopropyl-3-[2-[[5-(5,5-dimethylcyclopenten-1-yl)-1-(2-fluoro-5-methoxy-phenyl)pyrazol-4-yl]methoxy]-4-pyridyl]propanoic acid]"
8,24 nM and 23 nM,"COc1ccc(F)c(-n2nnc(COc3cccc([C@@H](CC(=O)O)C4CC4)c3)c2-c2ccc(C)s2)c1 [Cpd 88, (3S)-3-cyclopropyl-3-[3-[[1-(2-fluoro-5-methoxy-phenyl)-5-(5-methyl-2-thienyl)triazol-4-yl]methoxy]phenyl]propanoic acid]"
9,7 nM and 12 nM and 11 nM,"COc1ccc(F)c(-n2nnc(COc3cccc([C@@H](CC(=O)O)C4CC4)c3)c2N2CC3(CCC3)C2)c1 [Cpd 68, (3S)-3-[3-[[5-(6-azaspiro[3.3]heptan-6-yl)-1-(2-fluoro-5-methoxy-phenyl)triazol-4-yl]methoxy]phenyl]-3-cyclopropyl-propanoic acid]"
10,261 nM and 248 nM,"COc1ccc(F)c(-n2nnc(COc3cccc([C@@H](CC(=O)O)C4CC4)c3)c2C)c1 [Cpd 82, (3S)-3-cyclopropyl-3-[3-[[1-(2-fluoro-5-methoxy-phenyl)-5-methyl-triazol-4-yl]methoxy]phenyl]propanoic acid]"
11,86 nM and 83 nM,"COc1ccc(F)c(-n2ncc(COc3cccc([C@@H](CC(=O)O)C4CC4)c3)c2Br)c1 [Cpd 90, (3S)-3-[3-[[5-bromo-1-(2-fluoro-5-methoxy-phenyl)pyrazol-4-yl]methoxy]phenyl]-3-cyclopropyl-propanoic acid]"
12,1 nM,"COc1ccc(F)c(-n2nnc(COc3cc(C(CC(=O)O)C4CC4)ccn3)c2C2=CCCC2(C)C)c1 (racemic) [Cpd 63, 3-cyclopropyl-3-[2-[[5-(5,5-dimethylcyclopenten-1-yl)-1-(2-fluoro-5-methoxy-phenyl)triazol-4-yl]methoxy]-4-pyridyl]propanoic acid]"
13,27 nM,"COc1ccc(F)c(-n2ncc(COc3cccc([C@@H](CC(=O)O)C4CC4)c3)c2N2CCOCC2)c1 [Cpd 73, (3S)-3-cyclopropyl-3-[3-[[1-(2-fluoro-5-methoxy-phenyl)-5-morpholino-pyrazol-4-yl]methoxy]phenyl]propanoic acid]"
14,477 nM and 413 nM,"COc1ccc(F)c(-n2cnc(COc3cccc([C@@H](CC(=O)O)C4CC4)c3)c2C=C(C)C)c1 [Cpd 91, (3S)-3-cyclopropyl-3-[3-[[1-(2-fluoro-5-methoxy-phenyl)-5-(2-methylprop-1-enyl)imidazol-4-yl]methoxy]phenyl]propanoic acid]"
15,65 nM and 55 nM,"COc1ccc(F)c(-n2ncc(COc3cccc([C@@H](CC(=O)O)C4CC4)c3)c2-c2ccc(F)cc2F)c1 [Cpd 95, (3S)-3-cyclopropyl-3-[3-[[5-(2,4-difluorophenyl)-1-(2-fluoro-5-methoxy-phenyl)pyrazol-4-yl]methoxy]phenyl]propanoic acid]"
16,66 nM,"COc1ccc(F)c(-n2ncc(/C=C/c3cccc(C(CC(=O)O)C4CC4)c3)c2C2CC2)c1 (centres unmarked) [Cpd 76, 3-cyclopropyl-3-[3-[(E)-2-[5-cyclopropyl-1-(2-fluoro-5-methoxy-phenyl)pyrazol-4-yl]vinyl]phenyl]propanoic acid]"
17,47 nM and 36 nM,"COc1ccc(F)c(-n2nnc(COc3cccc([C@@H](CC(=O)O)C4CC4)c3)c2OC(C)C)c1 [Cpd 98, (3S)-3-cyclopropyl-3-[3-[[1-(2-fluoro-5-methoxy-phenyl)-5-isopropoxy-triazol-4-yl]methoxy]phenyl]propanoic acid]"
18,69 nM,"COc1ccc(F)c(-n2nnc(COc3cc(C(CC(=O)O)C4CC4)c(Cl)cn3)c2C2=CCCC2(C)C)c1 (centres unmarked) [Cpd 78, 3-[5-chloro-2-[[5-(5,5-dimethylcyclopenten-1-yl)-1-(2-fluoro-5-methoxy-phenyl)triazol-4-yl]methoxy]-4-pyridyl]-3-cyclopropyl-propanoic acid]"
19,24 nM and 45 nM and 39 nM,"COc1ccc(F)c(-n2cc(COc3cccc([C@@H](CC(=O)O)C4CC4)c3)cn2)c1 [Cpd 72, (3S)-3-cyclopropyl-3-[3-[[1-(2-fluoro-5-methoxy-phenyl)pyrazol-4-yl]methoxy]phenyl]propanoic acid]"
20,15 nM and 21 nM and 17 nM,"COc1ccc(F)c(-n2ncc(COc3cccc([C@@H](CC(=O)O)C4CC4)c3)c2C2CC2)c1 [Cpd 69, (3S)-3-cyclopropyl-3-[3-[[5-cyclopropyl-1-(2-fluoro-5-methoxy-phenyl)pyrazol-4-yl]methoxy]phenyl]propanoic acid]"
21,2 nM and 1 nM,"COc1ccc(F)c(-n2ncc(COc3cccc([C@@H](CC(=O)O)C4CC4)c3)c2C2=CCCC2(C)C)c1 [Cpd 66, (3S)-3-cyclopropyl-3-[3-[[5-(5,5-dimethylcyclopenten-1-yl)-1-(2-fluoro-5-methoxy-phenyl)pyrazol-4-yl]methoxy]phenyl]propanoic acid]"
22,66 nM,"COc1ccc(F)c(-n2ncc(CCc3cccc(C(CC(=O)O)C4CC4)c3)c2C2CC2)c1 (centres unmarked) [Cpd 77, 3-cyclopropyl-3-[3-[2-[5-cyclopropyl-1-(2-fluoro-5-methoxy-phenyl)pyrazol-4-yl]ethyl]phenyl]propanoic acid]"
23,14 nM,"COc1ccc(F)c(-n2nnc(COc3cccc([C@@H](CC(=O)O)C4CC4)c3)c2N2CCCCC2)c1 [Cpd 44, (3S)-3-cyclopropyl-3-[3-[[1-(2-fluoro-5-methoxy-phenyl)-5-(1-piperidyl)triazol-4-yl]methoxy]phenyl]propanoic acid]"
24,16 nM,"COc1cc(-n2ncc(COc3cccc([C@@H](CC(=O)O)C4CC4)c3)c2C2CC2)c(F)cn1 [Cpd 70, (3S)-3-cyclopropyl-3-[3-[[5-cyclopropyl-1-(5-fluoro-2-methoxy-4-pyridyl)pyrazol-4-yl]methoxy]phenyl]propanoic acid]"
25,38 nM and 31 nM and 37 nM (2×),"COc1ccc(F)c(-n2nnc(COc3cccc([C@@H](CC(=O)O)C4CC4)c3)c2C=C(C)C)c1 [Cpd 84, (3S)-3-cyclopropyl-3-[3-[[1-(2-fluoro-5-methoxy-phenyl)-5-(2-methylprop-1-enyl)triazol-4-yl]methoxy]phenyl]propanoic acid]"
26,60 nM,"COc1ccc(F)c(-n2nnc(COc3cc([C@H](CC(=O)O)C4CC4)ccn3)c2C2=CCCC2(C)C)c1 [Cpd 75, (3R)-3-cyclopropyl-3-[2-[[5-(5,5-dimethylcyclopenten-1-yl)-1-(2-fluoro-5-methoxy-phenyl)triazol-4-yl]methoxy]-4-pyridyl]propanoic acid]"
27,103 nM,"COc1ccc(F)c(-n2nnc(CCc3cccc([C@@H](CC(=O)O)C4CC4)c3)c2C2CC2)c1 [Cpd 79, (3S)-3-cyclopropyl-3-[3-[2-[5-cyclopropyl-1-(2-fluoro-5-methoxy-phenyl)triazol-4-yl]ethyl]phenyl]propanoic acid]"
28,38 nM,"COc1ccc(F)c(-n2nnc(/C=C/c3cccc([C@@H](CC(=O)O)C4CC4)c3)c2C2CC2)c1 [Cpd 74, (3S)-3-cyclopropyl-3-[3-[(E)-2-[5-cyclopropyl-1-(2-fluoro-5-methoxy-phenyl)triazol-4-yl]vinyl]phenyl]propanoic acid]"
29,11 nM and 9 nM,"COc1ccc(F)c(-n2ncc(COc3cccc([C@@H](CC(=O)O)C4CC4)c3)c2C=C(C)C)c1 [Cpd 89, (3S)-3-cyclopropyl-3-[3-[[1-(2-fluoro-5-methoxy-phenyl)-5-(2-methylprop-1-enyl)pyrazol-4-yl]methoxy]phenyl]propanoic acid]"
